Measured values as given in US20160297829A1, “METHOD FOR PRODUCING AVENACIOLIDES AND USES THEREOF” (Academia Sinica, priority 2015, published 2016).
In brackets after ≈: the same amount, converted by molar mass. Several values for one entry are separate records, joined by “and”; a condition that tells them apart may be missing. Identical values can stand only once. Like-named read-outs stand apart in the source and are kept apart here.

Assays:
A. baumannii = assay: Transmission Electron Microscopy (TEM) of treated bacteria; type: cell-based, Acinetobacter baumannii
Protocol: (§1) FIG. 1 are TEM photographs of MRSA (a-f) and A. baumannii (g-l) after being treated with the compounds of example 2 (128 μM) and fosfomycin (64 μM), in which (a) and (g) are un-treated S. aureus and A. baumannii; (b) and […] are those treated with the compound 10d, while (c) and (i) are treated with the compound of 13d; (d) and (j) are treated with the compound 14; (e) and (k) are treated with the compound 15; (f) and […] are treated with fosfomycin, in which CW, CM, IM, and OM respectively denote cell walls, cell membranes, inner membranes, and outer membranes; and
(§2) Transmission Electron Microscopy (TEM)
(§3) Exponential phase bacteria were treated with compounds at 4×MIC for 1 hr at 37° C. Then, the cells were washed and fixed and cut into thin slices and photographed using a Thin-layer TEM.

[1] = system: Mice macrophage cell line RAW 264.2; assay: AlamaBlue cell viability assay; type: cell-based; conditions: 24 hrs
Protocol: Mice macrophage cell line RAW 264.2 was used in the present disclosure. RAW 264.2 cells were cultured in RPMI 1640 medium supplemented with 10% fetal calf serum (FCS) and maintained in an environment of 5% CO2/95% air at 37° C.
AlamaBlue Cell Viability Assay
The alamarBlue cell viability assay uses a non-toxic, water-soluble resazurin dye that yields a fluorescent signal and a colorimetric change when incubated with metabolically active cells. The assay is based on the findings that metabolically active cells (or viable cells) may keep the culture medium in a reduced state, whereas the non-viable cells will turn the culture medium into an oxidized state, thereby rendering the redox indicator in the medium (i.e., resazurin dye) to convert from its non-fluorescent oxidized form (blue color) to its fluorescent reduced form (pink color). Thus, the cell viability may be monitored by the fluorescent signal changes at 590 nm.
Cells were plated in 96-well plates at a density of 5,000 cells/100 μL/well for 24 hrs, then 10 μL AlamarBlue™ reagent (AbD Serotee Ltd., Oxford, UK) and various concentrations (i.e., 12.5, 25, 50 or 100 μM) of the test compound (e.g., the compound of example 2) were added, and incubated for 24 hrs. The plates were then placed at a fluorescence reader and fluorescent signals at 590 nm were measured.
In general, mice macrophages were treated with various concentrations of the compounds of example 2 for 24 hrs, the viability of cells were then analyzed by fluorescence analysis in accordance with procedures described in “Materials and Methods” section.

[2] = system: gram-positive bacteria, including MRSA; assay: Growth inhibition (MIC), summary over strains; type: cell-based; conditions: for anti-bacteria activity: statement in words; for MIC: Staphylococcus aureus, MRSA, text summary for compounds 10d and 13d over gram-positive strains
Excerpt: (§4) Minimum Inhibition Concentration (MIC) Assay
(§5) MIC assay is a standardized assay performed in accordance with the guidelines issued by Clinical and Laboratory Standard Institute (CLSI) that measures the ability of certain agent and/or a surface in inhibiting the growth of a microorganism or killing the microorganism after being in contact with that microorganism for 24 hrs. Accordingly, MIC is the lowest concentration of an anti-bacterial agent and/or a surface that will inhibit the visible growth of a microorganism after overnight culture.
(§6) In practice, microorganisms grown on the agar plates were re-suspended in phosphate-buffered saline (PBS) to an OD 600 of 0.1. Suitable amount of this suspension was added to the appropriate broth media at a final concentration of 5×10^5 colony-forming units (CFU)/mL. Then, 98 μL of the broth+cell solution for each strain was added to each well of 96-well assay plate. Solutions of the present compounds were freshly prepared in DMSO and then serial diluted in 2-fold steps in DMSO, resulting in a final concentrations of 0.004-256 μg/mL when diluted 1:50 in test broth. The initial inoculum for each strain was serially diluted in PBS and plated on appropriate agar plate media to ensure that the assay contained the desired number of CFU. MIC assay plates were incubated overnight at 37° C. under aerobic conditions.
In this example, the inhibitory effect of the isolated avenaciolide derivatives of example 2 (i.e., compounds 10d, 13d, 14, and 15) on the growth of gram-positive bacteria, including MRSA, were tested; and the results are summarized in Table 1.

MRSA = assay: Transmission Electron Microscopy (TEM) of treated bacteria; type: cell-based, methicillin-resistant Staphylococcus aureus (MRSA)
Protocol: as §1, §2, §3

[3] = system: S. aureus ATCC 33592 (MRSA strain); assay: Minimum Inhibition Concentration (MIC) assay; type: cell-based, methicillin-resistant Staphylococcus aureus (MRSA); conditions: Staphylococcus aureus, overnight at 37° C.
Excerpt: (§7) Various strains of microorganisms were used in the present disclosure, including Acinetobacter baumannii (ATCO 17978), Staphylococcus aureus (ATCO 29213), methicillin-resistant Staphylococcus aureus (MRSA) (ATCO 33592), Bacillus subtilis (ATCO 23857), and Escherichia Coli (ATCO 25922), which were purchased from American Type Culture Collection (ATCO), and cultured in Mueller-Hinton (MH) II agar plates or in MH broth.
as §4, §5, §6

B. subtilis ATCC 23857 = assay: Minimum Inhibition Concentration (MIC) assay; type: cell-based; conditions: Bacillus subtilis, ATCC23857
Excerpt: as §7, §4, §5, §6

S. aureus ATCC 29213 = assay: Minimum Inhibition Concentration (MIC) assay; type: cell-based; conditions: Staphylococcus aureus, ATCC29213, overnight at 37° C.
Excerpt: as §7, §4, §5, §6

A. baumannii 17978 = assay: Minimum Inhibition Concentration (MIC) assay; type: cell-based, Acinetobacter baumannii
Excerpt: as §7, §4, §5, §6

E. coli ATCC 25922 = assay: Minimum Inhibition Concentration (MIC) assay; type: cell-based, Escherichia Coli
Excerpt: as §7, §4, §5, §6

E coli MurA = E coli MurA (Escherichia coli, UniProt P0A749); assay: biochemical; conditions: IC50, MurA activity, E coli MurA 25 nM, UNAG 310 μM, PEP 620 μM, pH 7.6; 5 replicates
Sequence of E coli MurA (P0A749 whole entry): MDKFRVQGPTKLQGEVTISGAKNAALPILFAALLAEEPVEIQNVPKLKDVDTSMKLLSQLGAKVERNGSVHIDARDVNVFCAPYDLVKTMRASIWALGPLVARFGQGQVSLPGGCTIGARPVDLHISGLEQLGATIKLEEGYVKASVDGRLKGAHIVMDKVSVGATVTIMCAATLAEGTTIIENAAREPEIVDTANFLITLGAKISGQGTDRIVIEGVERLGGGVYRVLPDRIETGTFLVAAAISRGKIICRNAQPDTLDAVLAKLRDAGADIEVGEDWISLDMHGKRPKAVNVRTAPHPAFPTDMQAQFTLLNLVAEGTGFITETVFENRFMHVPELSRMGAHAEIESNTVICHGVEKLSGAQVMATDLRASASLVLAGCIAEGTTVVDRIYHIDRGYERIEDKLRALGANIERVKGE
Protocol: (§8) In a standardized assay, MuraA enzymes were pre-incubated with the substrate UNAG and an inhibitor for 10 min at 37° C. To determine the influence of UNAG on the binding process, experiments were performed in the absence of UNAG during pre-incubation period. The reaction was initiated by the addition of the second substrate PEP, resulting in a total volume of […] with the following concentrations: E. Coli MurA or MRSA MurA 25 nM, UNAG 310 μM, PEP 620 μM, 50 mM HEPES, pH 7.6, DMSO 1% (v/v). The reaction was stopped after 60 min at 37° C. by adding 100 μL of Lanzetta reagent containing malachite green solution (0.045% (w/v)) and ammonium heptamolybdate (8.4% (v/v)) at a ratio of 3:1 and with 0.03% (w/v) Tergitol NP-40 as dye-stabilizing detergent. After 10 min, the absorbance at 620 nm was measured using a FlexStation 3 Microplate Reader (Molecular Devices). Finally, dose-response curves were generated by measuring the enzyme activity of five replicates at least 8 different compound concentrations. The resulting data were plotted and IC50 values indicating the concentration of the compound with a residual activity of 50% were determined.
(§9) Various types of MuraA enzymes, including those from E. Coli, wild type MRSA^WT, and MRSA^C119D mutant strain, were treated with any of the compounds 10d, 13d, or 14, as well as fosfomycin, in which MRSA^WT represents wild type MurA, and MRSA^C119D mutant strain represents MRSA strain in which the 119th amino acid residue, cysteine (C), is replaced by aspartic acid (D).

MRSA MurA^C119D = molecular target: T1, MRSA MurA^C119D (Staphylococcus aureus, UniProt Q5HEA0, C119D); assay: MuraA assay (malachite green); type: biochemical, methicillin-resistant Staphylococcus aureus (MRSA); conditions: for IC50, MurA activity: MRSA MurA C119D mutant (fosfomycin resistant), 5 replicates
T1 sequence (Q5HEA0 1-421 C119D): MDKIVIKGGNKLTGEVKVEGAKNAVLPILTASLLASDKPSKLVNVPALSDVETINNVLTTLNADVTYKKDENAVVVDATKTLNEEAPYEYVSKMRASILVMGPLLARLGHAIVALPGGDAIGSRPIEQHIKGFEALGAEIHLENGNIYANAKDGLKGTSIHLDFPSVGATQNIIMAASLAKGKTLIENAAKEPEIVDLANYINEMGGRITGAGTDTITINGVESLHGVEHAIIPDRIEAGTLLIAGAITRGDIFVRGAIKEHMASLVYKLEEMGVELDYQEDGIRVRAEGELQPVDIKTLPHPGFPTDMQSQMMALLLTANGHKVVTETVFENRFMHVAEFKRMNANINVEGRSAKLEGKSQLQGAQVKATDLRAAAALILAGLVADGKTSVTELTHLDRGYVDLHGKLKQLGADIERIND
Protocol: as §8, §9

MRSA MurA^WT = MRSA MurA^WT (Staphylococcus aureus, UniProt Q5HEA0); assay: MuraA assay (malachite green); type: biochemical, methicillin-resistant Staphylococcus aureus (MRSA); conditions: IC50, MurA activity, MRSA MurA wild type 25 nM, UNAG 310 μM, PEP 620 μM, pH 7.6; 5 replicates
Protocol: as §8, §9

[4] = 128 μg/mL (FIG. 1 legend: 128 μM), treated for an hr
[5] = B. subtilis ATCC 23857, overnight at 37° C., read-out: MIC
[6] = 12.5 or 25 μM, fluorescence 590 nm
[7] = 50 or 100 μM, fluorescence 590 nm
[8] = fosfomycin 64 μg/mL, positive control
[9] = Escherichia coli, ATCC25922, overnight at 37° C., read-out: MIC
[10] = 17978, Acinetobacter baumannii, read-out: MIC for gram-negative bacteria
[11] = Acinetobacter baumannii, A. baumannii 17978, overnight at 37° C., read-out: MIC

Row | SMILES | cell wall structure in TEM photographs (A. baumannii; [4]) | anti-bacteria activity [2] | cell wall structure in TEM photographs (MRSA; [4]) | MIC [3] [µg/mL] | MIC (B. subtilis ATCC 23857; [5]) [µg/mL] | MIC (S. aureus ATCC 29213) [µg/mL] | growth (viability) of macrophages [1, 6] | growth (viability) of macrophages [1, 7] | IC50 (E coli MurA) | IC50, MurA activity (MRSA MurA^C119D) | IC50 (MRSA MurA^WT) | MIC (E. coli ATCC 25922; [9]) [µg/mL] | MIC (A. baumannii 17978; [10]) [µg/mL] | MIC (A. baumannii 17978; [11]) [µg/mL] | IC50 (MRSA MurA^C119D) [µM] | MIC [2] [µg/mL] | further results
1 | CCCCCCCC[C@H]1OC(=O)[C@@H]2OC(=O)[C@@H](C)[C@H]12 [Compound 15] | neither MRSA nor A. baumannii was affected | neither compound 14, nor compound 15 possessed any anti-bacteria activity | neither MRSA nor A. baumannii was affected |  |  |  |  |  |  |  |  |  |  |  |  |  | growth (viability) of macrophages ([1]; various concentrations (12.5, 25, 50 or 100 μM)): completely un-affected
2 | C=C(C(=O)O)[C@@H]1[C@@H](CCCCCCCC)OC(=O)[C@@H]1O [Compound 14] | completely unaffected | neither compound 14, nor compound 15 possessed any anti-bacteria activity | slightly affected | 256 (≈ 900 µM) | 256 (≈ 900 µM) | 256 (≈ 900 µM) | slightly affected | significant growth inhibition | 0.9 to 10.8 µM and 10.8 µM | in-effective and No | ~71 µM and 71 µM |  |  |  |  |  | MIC (A. baumannii 17978; A. baumannii 17978, overnight at 37° C.): no; MIC (E. coli ATCC 25922; overnight at 37° C.): no
3 | C[C@@H]1O[C@@H]1P(=O)(O)O [fosfomycin, reference compound] |  |  |  | 64 (≈ 464 µM) |  | 4 (≈ 29 µM) |  |  | 0.4 µM | failed to suppress and No | 1.6 µM | 64 (≈ 464 µM) |  |  |  |  | MIC (B. subtilis ATCC 23857): 128 µg/mL (≈ 927 µM); cell wall structure in TEM photographs (A. baumannii; [8]): ruptured; MIC (A. baumannii 17978; Acinetobacter baumannii, 17978): 256 µg/mL (≈ 1850 µM); cell wall structure in TEM photographs (MRSA; [8]): ruptured
4 | C=C(C(=O)OC)[C@@H]1[C@@H](CCCCCCCC)OC(=O)[C@@H]1O [Compound 13d] | not affected |  | ruptured | 16 (≈ 53.6 µM) | 32 (≈ 107 µM) | 32 (≈ 107 µM) | slightly affected | significant growth inhibition | 0.9 to 10.8 µM and 2.8 µM |  | 6.7 µM | 128 (≈ 429 µM) | 256 (≈ 858 µM) | 256 (≈ 858 µM) | 7.9 | 16 to 32 (≈ 53.6 to 107 µM) | 
5 | C=C1C(=O)O[C@H]2C(=O)O[C@H](CCCCCCCC)[C@@H]12 [Compound 10d] | not affected |  | ruptured | 32 (≈ 120 µM) | 64 (≈ 240 µM) | 16 (≈ 60.1 µM) | slightly affected | significant growth inhibition | 0.9 to 10.8 µM and 0.9 µM |  | 8.3 µM | 128 (≈ 481 µM) | 256 (≈ 961 µM) | 256 (≈ 961 µM) | 21.5 | 16 to 32 (≈ 60.1 to 120 µM) | 
